Measurements published in publication PMC6130489, “Caffeic acid methyl and ethyl esters exert potential antidiabetic effects on glucose and lipid metabolism in cultured murine insulin-sensitive cells through mechanisms implicating activation of AMPK” (Pharmaceutical Biology, 2017).

Legend:
[1] = tested on: C/EBP-β; assay: Western immunoblot C/EBP-β in 3T3-L1 adipocytes; type: cell-based, mouse; details: 100 μM (Figure 4 legend)
Experimental: Insulin (100 nM) or aminoimidazole carboxamide ribonucleotide (AICAR; 1 mM) were added to some vehicle-treated wells 30 min prior to the end of the treatment and served as the positives controls. Protein content was assayed by the bicinchoninic acid method (Thermo Scientific Pierce Protein Research, Rockford, IL) standardized to bovine serum albumin. Western immunoblotting was performed as described elsewhere (Eid et al. [2010]). Membranes were incubated overnight with phospho-AMPK, phospho-Akt, GLUT4, GLUT1 and β-actin antibodies (1:1000 dilution, Cell Signalling Technology, Danvers, MA), or with PPAR-γ, SREBP-1 (1:200, Santa Cruze Biotechnology, Santa Cruz, CA), followed by incubation with HRP-coupled secondary antibody (1:10,000) for 1 h. Immunoreactive bands were visualized by enhanced chemiluminescence and quantified by the Scion Image program (Scion Corporation, Frederick, MD). Experiments were repeated on 3 different passages of cells, each passage containing all conditions in parallel.
Figure 4. CAME and CAEE inhibit C/EBP-β and PPAR-γ protein expression through mechanisms implicating AMPK pathway. Shown are representative blots of 3T3-adipocytes treated with the maximum nontoxic concentration (100 μM) of either CAME or CAEE. […] Data are expressed as C/EBP-β/β-actin (D), PPAR-γ/β-actin (E), phospho-Akt/pan-Akt (F) and phospho-AMPK/pan-AMPK (G). […]

[2] = tested on: AMPK; assay: Western immunoblot phospho-AMPK in H4IIE cells; type: cell-based, rat; details: 50 μM, 18 h, AICAR 1 mM 30 min as positive control
Experimental: L6 cells myotubes, H4IIE cells and 3T3-L1 adipocytes were treated with either CAME, CAEE (50 μM each) or vehicle (DMSO) for 18 h. Insulin (100 nM) or aminoimidazole carboxamide ribonucleotide (AICAR; 1 mM) were added to some vehicle-treated wells 30 min prior to the end of the treatment and served as the positives controls. Protein content was assayed by the bicinchoninic acid method (Thermo Scientific Pierce Protein Research, Rockford, IL) standardized to bovine serum albumin. Western immunoblotting was performed as described elsewhere (Eid et al. [2010]). […] Immunoreactive bands were visualized by enhanced chemiluminescence and quantified by the Scion Image program (Scion Corporation, Frederick, MD). […]
Figure 2. […] (A) H4IIE hepatocytes were treated for 16 h with several concentrations (12.5, 25, 50 and100 μM) of either CAME or CAEE and G6Pase activity was determined colorimetrically using a commercial glucose assay kit as described under Materials and Methods. […] (D) Data are expressed as phospho-AMPK/pan-AMPK and are given as mean ± SEM from 3 experiments. *p < 0.05 indicates a significant difference, **(p < 0.01), ***(p < 0.001) from the vehicle control group.

Compound | protein level of C/EBP-β [1] | AMPK phosphorylation [2]
COC(=O)/C=C/c1ccc(O)c(O)c1 [CAME, CA methyl ester] | significantly reduced | increase in AMPK phosphorylation to the same extent as the positive control AICAR
CCOC(=O)/C=C/c1ccc(O)c(O)c1 [CAEE, caffeic acid ethyl ester] | significantly reduced | increase in AMPK phosphorylation to the same extent as the positive control AICAR
